Earlier results on 1 compound are cited in US20220211687A1, “USE OF ARIMOCLOMOL IN THE TREATMENT OF NIEMANN PICK DISEASE” (Orphazyme A/S, priority 2020, published 2022).

The subject of the data set is Niemann—Pick disease type C (NPC). To be noted: background statement; cited from earlier work.

Turning to `CCCCN1C[C@H](O)[C@@H](O)[C@H](O)[C@H]1CO` [miglustat, (2R,3R,4R,5 S)-1-butyl-2-(hydroxymethyl)piperidine-3 ,4,5-triol], the “Effect on slowing NPC disease progression” value is “only a modest effect on slowing disease progression”.
